Format in all cases: cell-based
For assay [1], the system named is human EGFR-DTC. Briefly: EGFR protein abundance assay (Western blotting), EGFR-DTC. The settings on record: Ba/F3 cells expressing human EGFR-DTC, 24 h, Western blot. The procedure: (§1) Mouse Ba/F3 cells stably expressing human EGFR-DTC, EGFR-LTC, or EGFR-DC were transferred to Petri dishes with RPMI-1640 medium (Gibco, Product No. 11875093) containing 10% fetal bovine serum (FBS, Biological Industries, Product No. 04-001-1A) and 0.1% penicillin/streptomycin (P/S) and incubated in an aseptic incubator at 37° C., 95% relative humidity, and 5% CO2. Cells at the logarithmic growth phase were taken and seeded at a density of 50000 cells/well in 12-well plates (Corning, Product No. 3513) containing 1 mL of medium per well. After 24 h, the compounds disclosed herein with different concentrations were added to the wells at a final DMSO concentration of 0.1%. After 24 h, cells were lysed in SDS lysis buffer (1.45 g of SDS, 0.2 g of Tris base, 6 mL of glycerol, 20 mg of bromophenol blue, 310 mg DTT; brought to 40 mL with d2H2O), and the EGFR levels were detected and analyzed by Western Blotting (immunoblotting) using standard molecular biological techniques. Cell lysates were boiled at 95° C. for 8 min, mixed and centrifuged. The total cell proteins in the lysates were subjected to SDS-PAGE (GenScript, Product No. M00654), transferred to NC membranes (GE, Product No. 1060002) by blotting, incubated in a blocking buffer (TAKARA, Product No. T7131A) at room temperature for 60 min, and co-incubated overnight at 4° C. with the following primary antibodies: anti-EGFR (#4267S, 1:1000), anti-phoso-EGFR (#3777S, 1:1000), anti-GAPDH (#5174S, 1:10000), anti-Actin (#5125 S, 1:10000) (all purchased from Cell Signaling Technology). The samples were washed three times with TBST at room temperature, each for 10 min, and then incubated for 60 minutes in a blocking buffer containing a secondary antibody (#7074S, 1:10000, purchased from Cell Signaling Technology) at room temperature. The samples were washed three times with TBST at room temperature, each for 10 min. Chemiluminescent substrates were added, and an Azure c300 system was used for imaging.
(In general: In western blotting, separated proteins are transferred to a membrane and probed.)

Assay [2] addresses T1, human EGFR-LTC (Homo sapiens, UniProt P00533, C797S/L858R/T790M).
T1 construct: expressed in transfected cells
Briefly: EGFR protein abundance assay (Western blotting), EGFR-LTC. The settings on record: Ba/F3 cells expressing human EGFR-LTC, 24 h, Western blot. The procedure:
as §1

Assay [3] relates to BaF3 (EGFR Del19/T790M/C797S). Briefly: Cell proliferation IC50 assay (Cell Titer GLO), BaF3 DTC cells. The settings on record: Mus musculus, Ba/F3 EGFR-Del19/T790M/C797S, Table 5, 72 h. The method in brief: (§2)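 Log-phase cells seeded 2000-4000/well, serial compound dilutions added one day later; DMSO negative, medium-only blank.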
Background: Cellular ATP, detected with luciferase, serves as a proxy for viable cell number.

Assay [4] concerns BaF3 (EGFR L858R/T790M/C797S). The experiment in a line: Cell proliferation IC50 assay (Cell Titer GLO), BaF3 LTC cells. The settings on record: Mus musculus, Ba/F3 EGFR, Table 5, 72 h. Put shortly:
as §2

Assay [5] has as its system BaF3 (EGFR WT). The experiment in a line: Cell proliferation IC50 assay (Cell Titer GLO), BaF3 WT cells. The settings on record: Mus musculus, Ba/F3 EGFR, Table 5, 10 ng/ml EGF, 72 h. The method in brief:
as §2

The test system of assay [6] is BaF3 patent. The experiment in a line: Cell proliferation IC50 assay (Cell Titer GLO), BaF3 parental cells. The settings on record: Mus musculus, Table 5, 10 ng/ml mIL3, 72 h. The procedure:
IC50 of compounds in the present invention was determined by Cell Titer GLO reagent from Promega. The procedures are as follows:
Tumor cells were cultured in specified medium in an incubator at 37° C. and 5% CO2. The cells were passaged periodically. Cells at the logarithmic growth phase were collected for plating at a density of 2000-4000 cells/well. The next day, the compounds of the present invention were serially diluted and added to the cells, with DMSO being the negative control and the culture media without cells being the blank control. The plate was incubated in the incubator for 72 h. The cell viability assay was performed by adding the detection reagents to the cell culture media according to Cell Titer GLO reagent instructions and detecting luminescent signals on an EnVision microplate reader (PerkinElmer).
Inhibition of cell growth by the compounds of the present invention was plotted by Prism Graphpad software for statistically calculating the IC50 of the compound of the present invention.

Assay [7] has as its system A431. The experiment in a line: Cell proliferation IC50 assay (Cell Titer GLO), A431 cells. The settings on record: Homo sapiens, A-431; Table 5; A431, 72 h; read-out: A431 IC50. The method in brief:
as §2

As a reminder, the IC50 is the concentration that inhibits the measured activity by half.

T1 sequence (P00533 25-1210 T790M/C797S/L858R): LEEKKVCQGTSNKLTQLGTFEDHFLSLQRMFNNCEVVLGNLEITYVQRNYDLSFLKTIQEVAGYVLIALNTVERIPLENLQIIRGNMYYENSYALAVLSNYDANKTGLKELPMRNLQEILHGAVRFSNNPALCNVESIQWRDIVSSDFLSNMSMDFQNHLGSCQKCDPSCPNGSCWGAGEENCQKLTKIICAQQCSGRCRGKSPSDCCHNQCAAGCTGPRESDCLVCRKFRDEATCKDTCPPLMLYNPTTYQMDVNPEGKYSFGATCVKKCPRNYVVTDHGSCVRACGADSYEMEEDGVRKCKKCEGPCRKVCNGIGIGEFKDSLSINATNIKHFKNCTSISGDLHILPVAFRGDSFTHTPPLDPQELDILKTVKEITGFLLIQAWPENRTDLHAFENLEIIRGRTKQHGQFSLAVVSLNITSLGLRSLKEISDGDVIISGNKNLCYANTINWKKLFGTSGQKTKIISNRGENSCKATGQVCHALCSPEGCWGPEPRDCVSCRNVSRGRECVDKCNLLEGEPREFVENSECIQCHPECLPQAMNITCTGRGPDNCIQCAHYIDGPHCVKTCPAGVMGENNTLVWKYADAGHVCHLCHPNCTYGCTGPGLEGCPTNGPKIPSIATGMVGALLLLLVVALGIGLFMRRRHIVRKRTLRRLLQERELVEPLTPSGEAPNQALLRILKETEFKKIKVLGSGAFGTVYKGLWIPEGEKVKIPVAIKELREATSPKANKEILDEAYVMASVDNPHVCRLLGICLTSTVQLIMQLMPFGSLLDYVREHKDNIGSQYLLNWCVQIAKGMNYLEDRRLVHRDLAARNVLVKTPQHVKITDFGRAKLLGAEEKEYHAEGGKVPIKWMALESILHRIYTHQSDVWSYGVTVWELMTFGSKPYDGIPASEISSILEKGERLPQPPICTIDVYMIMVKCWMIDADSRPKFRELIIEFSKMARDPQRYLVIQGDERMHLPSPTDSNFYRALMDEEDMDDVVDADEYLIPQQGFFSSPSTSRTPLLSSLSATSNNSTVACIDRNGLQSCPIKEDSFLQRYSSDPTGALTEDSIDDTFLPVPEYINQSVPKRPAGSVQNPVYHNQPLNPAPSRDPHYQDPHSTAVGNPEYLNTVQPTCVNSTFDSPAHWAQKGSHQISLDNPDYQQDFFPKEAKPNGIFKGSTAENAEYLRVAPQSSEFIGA

Consider `CCc1cc(Nc2ncc(Cl)c(Nc3ccccc3P(C)(C)=O)n2)c(OC)cc1N1CCC(N2CCN(CCC#Cc3cccc4c3CN(C3CCC(=O)NC3=O)C4=O)CC2)CC1` (single isomer, unassigned) [Example E6], for which, in assay [1], the DC50 was determined as 0.00337 µM and the “EGFR-DTC Dmax” value is 70%. In assay [2], the DC50 is 0.0101 µM and the “EGFR-LTC Dmax” value is recorded as 89%.

For `COc1cc(N2CCC3(CCN(CCCC#Cc4cccc5c4CN(C4CCC(=O)NC4=O)C5=O)CC3)CC2)c(Cl)cc1Nc1ncc(Cl)c(Nc2ccccc2P(C)(C)=O)n1` (stereo not shown) [Example E11], the concentration for half-maximal inhibition (IC50) in assay [3] is 0.0171 µM; in assay [4] it was 0.0613 µM; in assay [5] it was 0.236 µM; in assay [6], 0.147 µM; in assay [7], over 4 µM.

Turning to `CCc1cc(Nc2ncc(Cl)c(Nc3ccccc3P(C)(C)=O)n2)c(OC)cc1N1CCC(N2CC3(CCC(Oc4cccc5c4CN(C4CCC(=O)NC4=O)C5=O)CC3)C2)CC1` (stereo not shown) [Example E29], the half-inhibitory concentration (IC50) in assay [3] worked out at 0.014 µM; in assay [4], 0.0209 µM; in assay [5] it was 1 µM; in assay [6] it was 1.37 µM; in assay [7] it was 1.02 µM.

In the case of `CCc1cc(Nc2ncc(Cl)c(Nc3ccccc3P(C)(C)=O)n2)c(OC)cc1N1CCC(N2CCN(CCCCOc3cccc4c3CN(C3CCC(=O)NC3=O)C4=O)CC2)CC1` (stereo not shown) [Example E30], the IC50 in assay [3] came to 0.0016 µM; in assay [4], 0.0119 µM; in assay [5] it was 0.636 µM; in assay [6], 0.41 µM; in assay [7] it was 1.02 µM.

Regarding `CCc1cc(Nc2ncc(Cl)c(Nc3ccccc3P(C)(C)=O)n2)c(OC)cc1N1CCC(N2CCC3(CCC(Oc4cccc5c4CN(C4CCC(=O)NC4=O)C5=O)CC3)C2)CC1` (stereo not shown) [Example E21], the concentration for half-maximal inhibition (IC50) was 0.0019 µM in assay [3]; 0.0168 µM in assay [4]; 0.636 µM in assay [5]; 0.41 µM in assay [6]; 1.01 µM in assay [7].

`COc1cc(N2CCC3(CCN(CCCC#Cc4cccc5c4CN(C4CCC(=O)NC4=O)C5=O)CC3)CC2)ccc1Nc1ncc(Cl)c(Nc2ccccc2P(C)(C)=O)n1` (stereo not shown) [Example C-1, reference compound]: the 50% inhibitory concentration (IC50) in assay [3] was 0.028 µM; in assay [4] it was 0.199 µM; in assay [5], 0.38 µM; in assay [6] it was 0.376 µM; in assay [7] it was 2.82 µM.

With `CCc1cc(Nc2ncc(Cl)c(Nc3ccccc3P(C)(C)=O)n2)c(OC)cc1N1CCC(N2CCN(CCC#Cc3ccc4c(c3)CN(C3CCC(=O)NC3=O)C4=O)CC2)CC1` (stereo not shown) [Example E24], the half-maximal inhibitory concentration (IC50) was 0.0354 µM in assay [3]; 0.0706 µM in assay [4]; 1.55 µM in assay [5]; 1.26 µM in assay [6]; 1.46 µM in assay [7].

Consider `COc1cc(N2CCC(N3CCC4(CCC(Oc5cccc6c5CN(C5CCC(=O)NC5=O)C6=O)CC4)C3)CC2)c(C2CC2)cc1Nc1ncc(Cl)c(Nc2ccccc2P(C)(C)=O)n1` (stereo not shown) [Example E27], for which the IC50 amounted to 0.0033 µM in assay [3]; 0.0298 µM in assay [4]; 0.937 µM in assay [5]; 0.375 µM in assay [6]; 1.19 µM in assay [7].

Take `CCc1cc(Nc2ncc(Cl)c(Nc3ccccc3P(C)(C)=O)n2)c(OC)cc1N1CCC(N2CCN(CCCc3cccc4c3CN(C3CCC(=O)NC3=O)C4=O)CC2)CC1` (stereo not shown) [Example E26]: the 50% inhibitory concentration (IC50) in assay [3] worked out at 0.008 µM; in assay [4], 0.0535 µM; in assay [5] it was 0.517 µM; in assay [6], 0.546 µM; in assay [7], 1.09 µM.

As to `COc1cc(N2CCC(N3CCN(CC#Cc4cccc5c4CN(C4CCC(=O)NC4=O)C5=O)CC3)CC2)ccc1Nc1ncc(Cl)c(Nc2ccccc2P(C)(C)=O)n1` (stereo not shown) [Example C-3, reference compound], the 50% inhibitory concentration (IC50) in assay [3] was 0.0437 µM; in assay [4], 0.129 µM; in assay [5] it was 0.587 µM; in assay [6], 0.475 µM; in assay [7] it was 1.21 µM.

On to `CN(CCCC#Cc1cccc2c1CN(C1CCC(=O)NC1=O)C2=O)C1CC2(CCN(c3ccc(Nc4ncc(Cl)c(Nc5ccccc5P(C)(C)=O)n4)cc3Cl)CC2)C1` (stereo not shown) [Example E14], for which the concentration for half-maximal inhibition (IC50) in assay [3] was 0.0078 µM; in assay [4] it was 0.0552 µM; in assay [5], 0.069 µM; in assay [6] it was 0.0842 µM; in assay [7], 0.377 µM.

In the case of `CCc1cc(Nc2ncc(Cl)c(Nc3ccccc3P(C)(C)=O)n2)c(OC)cc1N1CCC(N2CCN(CCCCCc3cc4c(cc3F)C(=O)N(C3CCC(=O)NC3=O)C4)CC2)CC1` (stereo not shown) [Example E19], the half-inhibitory concentration (IC50) in assay [3] is 0.0089 µM; in assay [4] it was 0.0611 µM; in assay [5], over 4 µM; in assay [6], over 4 µM; in assay [7], 1.07 µM.

`CCc1cc(Nc2ncc(Cl)c(Nc3ccccc3P(C)(C)=O)n2)ccc1N1CCC(N2CCN(CCC#Cc3cccc4c3CN(C3CCC(=O)NC3=O)C4=O)CC2)CC1` (stereo not shown) [Example E9]: the IC50 is 0.0056 µM in assay [3]; 0.0112 µM in assay [4]; 0.0284 µM in assay [5]; 0.0207 µM in assay [6]; 0.393 µM in assay [7].

As for `CCc1cc(Nc2ncc(Cl)c(Nc3ccccc3P(C)(C)=O)n2)c(OC)cc1N1CCC(N2CCN(CC#Cc3cccc4c3CN(C3CCC(=O)NC3=O)C4=O)CC2)CC1` (stereo not shown) [Example E25], the IC50 came to 0.0137 µM in assay [3]; 0.0572 µM in assay [4]; 1.37 µM in assay [5]; 1.21 µM in assay [6]; 1.26 µM in assay [7].

`CP(C)(=O)c1ccccc1Nc1nc(Nc2ccc(N3CCC(N4CCN(CCC#Cc5cccc6c5CN(C5CCC(=O)NC5=O)C6=O)CC4)CC3)c(Cl)c2)ncc1Cl` (stereo not shown) [Example E17]: the half-inhibitory concentration (IC50) in assay [3] came out at 0.0037 µM; in assay [4] it was 0.0155 µM; in assay [5] it was 0.0251 µM; in assay [6], 0.0234 µM; in assay [7], 0.283 µM.

Take `CCc1cc(Nc2ncc(Cl)c(Nc3ccccc3P(C)(C)=O)n2)c(OC)cc1N1CCC2(CCN(CCCCC#Cc3cccc4c3CN(C3CCC(=O)NC3=O)C4=O)CC2)CC1` (stereo not shown) [Example E23]: the IC50 in assay [3] is 0.0094 µM; in assay [4], 0.105 µM; in assay [5], over 4 µM; in assay [6] it was over 4 µM; in assay [7], over 4 µM.

As to `CCc1cc(Nc2ncc(Br)c(Nc3ccc4c(c3P(C)(C)=O)OCCO4)n2)c(OC)cc1N1CCC2(CCN(CCCC#Cc3cccc4c3CN(C3CCC(=O)NC3=O)C4=O)CC2)CC1` (stereo not shown) [Example E28], the half-maximal inhibitory concentration (IC50) in assay [3] came to 0.0112 µM; in assay [4], 0.0579 µM; in assay [5], 0.955 µM; in assay [6] it was 0.695 µM; in assay [7], 1.39 µM.

In the case of `COc1cc(N2CCC(N3CCN(CCC#Cc4cccc5c4CN(C4CCC(=O)NC4=O)C5=O)CC3)CC2)c(Cl)cc1Nc1ncc(Cl)c(Nc2ccccc2P(C)(C)=O)n1` (stereo not shown) [Example E10], the IC50 in assay [3] was 0.0155 µM; in assay [4] it was 0.0284 µM; in assay [5], 0.101 µM; in assay [6] it was 0.0549 µM; in assay [7], 1.21 µM.

Turning to `CP(C)(=O)c1ccccc1Nc1nc(Nc2ccc(N3CCC4(CCN(CCCC#Cc5cccc6c5CN(C5CCC(=O)NC5=O)C6=O)CC4)CC3)c(Cl)c2)ncc1Cl` (stereo not shown) [Example E18], the 50% inhibitory concentration (IC50) in assay [3] came out at 0.0309 µM; in assay [4] it was 0.266 µM; in assay [5] it was 0.724 µM; in assay [6], 0.786 µM; in assay [7], 2.18 µM.

The values above are taken from patent US20240408216A1, “PROTEIN INHIBITOR OR DEGRADING AGENT, PHARMACEUTICAL COMPOSITION CONTAINING SAME AND PHARMACEUTICAL USE” (JING MEDICINE TECHNOLOGY (SHANGHAI) LTD., priority 2021, published 2024).
